Assay results published in PubChem BioAssay AID651717 (Broad Institute, 2012).

These compounds were tested on mESC Bmi1-luciferase reporter, firefly/renilla ratio, 24 h (assay: compounds raising Bmi1 reporter signal – mouse embryonic stem cells, luciferase, cherry-pick, esBAF inhibitor project, dose response (AID 651717);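 note: luciferase knocked into Bmi1 locus with EF-1a renilla as cell number control; rising ratio signals esBAF inhibition which derepresses Bmi1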).

Q: How did the AC40 turn out when `CCCCCn1c(=O)c(C(=O)Nc2ccccc2Cl)c(O)c2ccccc21` was run?
A: 5.14 µM

Q: For `COc1cccc(NC(=O)CN(C)C(=O)CNC(=O)c2sc3ccccc3c2Cl)c1`, which AC40 is on record?
A: 4.99 µM

Q: With `COc1ccc(Nc2ncnc3sc(C)cc23)cc1` as the compound, how does the AC40 read?
A: 5.43 µM

Q: With `O=c1c(-c2nc3ccccc3s2)cccn1Cc1ccc(Cl)cc1` as the compound, how does the AC40 read?
A: 3.09 µM

Q: Which AC40 does the source give for `CC1CCc2c(sc(NC(=O)c3cccn3C)c2C(N)=O)C1` (configuration not stated) here?
A: 3.63 µM

Q: Which AC40 does the source give for `COc1ccc(C)cc1NCc1cc(=O)oc2cc(-c3ccccc3)c(O)cc12` here?
A: 32.4 µM

Q: For `CCCC1CCC(c2nc(-c3cccnc3)no2)CC1` (configuration not stated), which AC40 is on record?
A: 2.04 µM

Q: With `CCS(=O)(=O)N1Cc2ccccc2CC1C(=O)Nc1cccc(OC)c1` (configuration not stated) as the compound, how does the AC40 read?
A: 8.28 µM

Q: How did the AC40 turn out when `c1ccc(CCNc2ccc3c(c2)Cc2ccccc2-3)nc1` was run?
A: 1.53 µM

Q: For `O=c1ccc2ccc(OCc3ccccc3)cc2o1`, which AC40 is on record?
A: 3.55 µM

Q: For `CSCc1nc2sc(C(=O)Nc3nc(C)cs3)c(C)c2c(=O)[nH]1`, which AC40 is on record?
A: 4.19 µM

Q: `COC(=O)c1sccc1NC(=O)c1ccc(OC)cc1` was tested. Which AC40 did it give?
A: 6.81 µM

Q: With `C=CCN(C(=O)C1CC(=O)N(C2CCCC2)C1)c1nc(-c2ccc(S(C)(=O)=O)cc2)cs1` (configuration not stated) as the compound, how does the AC40 read?
A: 34.4 µM

Q: How did the AC40 turn out when `O=C(CC(=O)c1ccccc1)Nc1ccccc1` was run?
A: 3.94 µM

Q: Which AC40 does the source give for `COc1ccc(C(=O)/C=C(\C)Nc2ccc3c(c2)OCO3)cc1` here?
A: 1.85 µM

Q: For `COc1ccc(-n2nc(C(=O)NCC(=O)N3CCN(c4ccccc4)CC3)c3ccccc3c2=O)cc1OC`, which AC40 is on record?
A: 7.98 µM

Q: With `CCc1sc(C(=O)Nc2ccc3nc(C)sc3c2)cc1C` as the compound, how does the AC40 read?
A: 4.74 µM

Q: `Cc1ccnc(NC(=O)c2ccc3c(c2)C(=O)N(CC(C)C)C3=O)c1` was tested. Which AC40 did it give?
A: 2.87 µM

Q: With `COc1ccc(-c2noc(CCCC(=O)N3CCN(c4cc(C)ccc4C)CC3)n2)cc1` as the compound, how does the AC40 read?
A: 3.53 µM

Q: `O=C(O)CCc1ccc(-c2ccc(Br)cc2)n1-c1cccc(O)c1` was tested. Which AC40 did it give?
A: 10.8 µM

Q: With `COC(=O)c1ccc(COC(=O)c2ccc(SC)cc2OC)cc1` as the compound, how does the AC40 read?
A: 8.51 µM

Q: With `COc1ccc(C(=O)Nc2ccc(C3CC3(Cl)Cl)cc2)cc1` (configuration not stated) as the compound, how does the AC40 read?
A: 7.09 µM

Q: `CCN(C(=O)c1cc2c(=O)n3ccccc3nc2s1)C1CCCCC1` was tested. Which AC40 did it give?
A: 14 µM

Q: `COc1cccc(/C=N/n2c(N)nc3ccccc32)c1OC` was tested. Which AC40 did it give?
A: 3.21 µM

Q: For `N#CC(c1ccccc1O)N1N=C(c2ccccc2)CC1c1ccccc1` (configuration not stated), which AC40 is on record?
A: 1.43 µM

Q: How did the AC40 turn out when `O=C(Nc1ccc(F)cc1F)NC1CCCCCCC1` was run?
A: 5.14 µM

Q: Which AC40 does the source give for `O=C(O)c1ccc2noc(-c3ccccc3)c2c1` here?
A: 1.54 µM

Q: With `O=C1CCCc2c1sc1nc3n(c(=O)c21)CCCCC3` as the compound, how does the AC40 read?
A: 4.12 µM

Q: With `COc1ccc2c(CN(C)Cc3ccccc3)cc(=O)oc2c1` as the compound, how does the AC40 read?
A: 0.841 µM

Q: `Cc1ccc(O)c(N=Cc2ccc(C)s2)c1` was tested. Which AC40 did it give?
A: 25.8 µM

Q: How did the AC40 turn out when `CCN(CC)c1ccc2cc(C(=O)c3cccs3)c(=O)oc2c1` was run?
A: 11.6 µM

Q: `COc1ccc(-c2ccc3oc(-c4ccsc4)cc(=O)c3c2)cn1` was tested. Which AC40 did it give?
A: 1.67 µM

Q: Which AC40 does the source give for `O=C(CCN1C(=O)/C(=C/C=C/c2ccccc2)SC1=S)Nc1cccnc1` here?
A: 2.35 µM

Q: `COC(=O)c1c(-c2ccc(SC)cc2)sc2ccccc12` was tested. Which AC40 did it give?
A: 14.3 µM

Q: Which AC40 does the source give for `NCCNC(=O)c1c(NC(=O)c2ccccc2)sc2c1CCCC2` here?
A: 34.4 µM

Q: `O=C(c1cccs1)N(C(=O)c1cccs1)c1ccc(Br)cn1` was tested. Which AC40 did it give?
A: 1.09 µM

Q: For `COc1ccc2c(=O)c3ccccc3oc2c1`, which AC40 is on record?
A: 4.7 µM

Q: How did the AC40 turn out when `CNc1oc(-c2ccc(OCc3ccccc3)cc2)nc1C#N` was run?
A: 24.4 µM

Q: For `O=C(Cc1ccccn1)c1ccc(Cl)cc1`, which AC40 is on record?
A: 3.14 µM

Q: For `CN(Cc1ccccn1)C(=O)c1cc(COc2ccc(F)c(F)c2)on1`, which AC40 is on record?
A: 3.82 µM

Q: For `CC(C)c1ccc(NC(=O)c2cccnc2)cc1`, which AC40 is on record?
A: 2.6 µM

Q: With `CC(=O)Nc1cc2c3c(cccc3c1)-c1ccccc1-2` as the compound, how does the AC40 read?
A: 5.23 µM

Q: Which AC40 does the source give for `Cn1cnc(S(=O)(=O)N2CCCCC2c2cc(C(=O)Nc3ccc(F)c(Cl)c3)no2)c1` (configuration not stated) here?
A: 8.38 µM

Q: For `Cc1cc(N2CCCCC2)nc2ccc(NC(=O)CCC(=O)NCCC(C)C)cc12`, which AC40 is on record?
A: 16.6 µM

Q: Which AC40 does the source give for `CN(CC(=O)Nc1ccc(Cl)c(C(F)(F)F)c1)C(=O)CCCNC(=O)c1ccc(Cl)cc1` here?
A: 16.8 µM

Q: `O=C(NC1CCCCC1)c1n[nH]c2c1CC(c1ccccc1)CC2` (configuration not stated) was tested. Which AC40 did it give?
A: 0.996 µM

Q: Which AC40 does the source give for `Cc1ccccc1NC(=O)c1ccc2c(c1)N(C)CCS2` here?
A: 3.39 µM

Q: Which AC40 does the source give for `c1ccc(-c2ccc(-c3ccccc3)[nH]2)cc1` here?
A: 1.44 µM

Q: With `CN(C)c1ccc(C=Cc2nccc3ccccc23)cc1` as the compound, how does the AC40 read?
A: 1.65 µM

Q: Which AC40 does the source give for `Cc1cccc(NC(=O)c2ccccn2)c1C` here?
A: 3.69 µM

Q: For `CS(=O)(=O)c1ccccc1C(=O)Nc1ccc(-c2nc3ccccc3[nH]2)cc1`, which AC40 is on record?
A: 3.96 µM

Q: `O=C(OCc1ccccc1)N1CCC2CC1c1cc(/C=C/CCCSc3ncccn3)ccc12` (configuration not stated) was tested. Which AC40 did it give?
A: 12.2 µM

Q: With `CCNC(=O)O/N=C(\C)c1sc(-c2ccccc2)nc1C` as the compound, how does the AC40 read?
A: 3.29 µM

Q: Which AC40 does the source give for `Cn1cccc1C(=O)OCc1ccc(C(C)(C)C)cc1` here?
A: 4.64 µM

Q: For `O=C(Nc1ccc(F)c(Cl)c1)c1cc(C2CCCN(C(=O)C3CC3)C2)on1` (configuration not stated), which AC40 is on record?
A: < 0.26 µM

Q: How did the AC40 turn out when `COc1ccc2c(=O)c(-c3ccc(OC)c(OC)c3)coc2c1` was run?
A: 2.69 µM

Q: With `CCCC(=O)N1CCN(c2nc3ccc(Br)cc3s2)CC1` as the compound, how does the AC40 read?
A: 1.7 µM

Q: With `CN=Cc1cc(-c2ccccc2)sc1O` as the compound, how does the AC40 read?
A: 12.9 µM

Q: `COc1ccc2cc(C(=O)N(C)CC(=O)Nc3ccccc3Br)ccc2c1` was tested. Which AC40 did it give?
A: 5.86 µM

Q: `N#CCc1nc(CSc2nc3ccccc3s2)cs1` was tested. Which AC40 did it give?
A: 9.73 µM

Q: Which AC40 does the source give for `CCCCSc1nnc(-c2c[nH]c3ccccc23)n1C` here?
A: 6.69 µM

Q: For `Cc1cc(-c2nnco2)c(C)n1-c1ccccc1`, which AC40 is on record?
A: 6.01 µM
